Patent US20140171357A1, “VANCOMYCIN DERIVATIVES” (Seachald Pharmaceuticals, Inc., priority 2011, published 2014)
≈ marks a conversion by molar mass, not a printed value.

What was measured:
B. anthracis Sterne 105 = type: cell-based, Bacillus anthracis; settings: Tween 80 0.002% medium, serum condition not stated
[1] = test system: methicillin-susceptible S. aureus (MSSA, 22); assay: MIC broth microdilution, MSSA; settings: for MIC 50% / MIC 90%: MSSA (22)
[2] = test system: methicillin-resistant S. aureus (MRSA, 22); assay: MIC broth microdilution, MRSA; settings: for MIC 50% / MIC 90%: MRSA (22)
[3] = test system: vancomycin-intermediate S. aureus (VISA, 5); assay: MIC broth microdilution, VISA
[4] = test system: vancomycin-resistant S. aureus (VRSA, 6); assay: MIC broth microdilution, VRSA
[5] = test system: heterogeneous VISA (hVISA, 10); assay: MIC broth microdilution, hVISA
S. pneumoniae (22) = assay: MIC broth microdilution, S. pneumoniae; settings: for MIC 50% / MIC 90%: S. pneumoniae (22), MHB + lysed horse blood
[6] = test system: Staphylococcus epidermidis (43 strains); assay: MIC broth microdilution, S. epidermidis; settings: S. epidermidis (43)
[7] = test system: VanA vancomycin-resistant E. faecium (10); assay: MIC broth microdilution, VanA E. faecium; settings: E. faecium, VanA (10)
[8] = test system: VanB vancomycin-resistant E. faecium (10); assay: MIC broth microdilution, VanB E. faecium; settings: E. faecium, VanB (10)
S. aureus ATCC 25923 = assay: Neutropenic murine thigh infection model; settings: for AUCc-t (AUC difference between control and treated animals): 24 h time kill; for in vivo efficacy against S. aureus (in words): neutropenic soft tissue infection model
[9] = test system: VanA vancomycin-resistant E. faecalis (11); assay: MIC broth microdilution, VanA E. faecalis; settings: E. faecalis, VanA (11)
[10] = test system: VanB vancomycin-resistant E. faecalis (12); assay: MIC broth microdilution, VanB E. faecalis; settings: E. faecalis, VanB (12)
[11] = test system: Staphylococcus aureus (65 strains); assay: MIC broth microdilution, S. aureus all isolates; settings: S. aureus (65), all resistance subsets
[12] = test system: β-hemolytic streptococci (23); assay: MIC broth microdilution, β-hemolytic streptococci; settings: for fold more potent than teicoplanin and daptomycin / fold more potent than vancomycin: β-hemolytic streptococci; for MIC 50% / MIC 90%: β-hemolytic streptococci (23), MHB + lysed horse blood
VanC enterococci (22) = assay: MIC broth microdilution, vanC-carrying enterococci; settings: VanC enterococci (22)
[13] = test system: vancomycin-susceptible E. faecium (21); assay: MIC broth microdilution, vancomycin-susceptible E. faecium; settings: E. faecium, vancomycin-susceptible (21)
[14] = test system: vancomycin-susceptible E. faecalis (23); assay: MIC broth microdilution, vancomycin-susceptible E. faecalis; settings: E. faecalis, vancomycin-susceptible (23)
[15] = 1 mg/kg single intraperitoneal dose
[16] = 4 mg/kg single intraperitoneal dose
[17] = 16 mg/kg single intraperitoneal dose

Compound: CNC(CC(C)C)C(=O)NC1C(=O)NC(CC(N)=O)C(=O)NC2C(=O)NC3C(=O)NC(C(=O)NC(C(=O)O)c4cc(O)c(CNCCOCCOCC[N+](C)(C)C)c(O)c4-c4cc3ccc4O)C(O)c3ccc(c(Cl)c3)Oc3cc2cc(c3OC2OC(CO)C(O)C(O)C2OC2CC(C)(NCc3ccc(OCc4ccc(Cl)c(Cl)c4)cc3)C(O)C(C)O2)Oc2ccc(cc2Cl)C1O (stereo not drawn) [Compound 29]
- MIC (B. anthracis Sterne 105): 0.03 µg/mL
- MIC 50% [1]: 0.06 µg/mL
- MIC 90% [1]: 0.12 µg/mL
- MIC 50% [2]: 0.06 µg/mL
- MIC 90% [2]: 0.12 µg/mL
- MIC 50% [3]: 0.25 µg/mL
- MIC 50% [4]: 4 µg/mL
- MIC 50% [5]: 0.06 µg/mL
- MIC 90% [5]: 0.12 µg/mL
- MIC 50% (S. pneumoniae (22)): 0.03 µg/mL
- MIC 90% (S. pneumoniae (22)): 0.06 µg/mL
- MIC 50% [6]: 0.03 µg/mL
- MIC 90% [6]: 0.06 µg/mL
- MIC 50% [7]: 1 µg/mL
- MIC 90% [7]: 2 µg/mL
- MIC 50% [8]: 0.06 µg/mL
- MIC 90% [8]: 0.06 µg/mL
- Max Kill (maximum decrease from initial infection level) (S. aureus ATCC 25923; [15]): 0.08 Log10 CFU/thigh
- AUCc-t (AUC difference between control and treated animals) (S. aureus ATCC 25923; [15]): 17.7 (Log10 CFU/thigh)/hr
- Max Kill (maximum decrease from initial infection level) (S. aureus ATCC 25923; [16]): 0.07 Log10 CFU/thigh
- AUCc-t (AUC difference between control and treated animals) (S. aureus ATCC 25923; [16]): 22.6 (Log10 CFU/thigh)/hr
- Max Kill (maximum decrease from initial infection level) (S. aureus ATCC 25923; [17]): −1.05 Log10 CFU/thigh
- AUCc-t (AUC difference between control and treated animals) (S. aureus ATCC 25923; [17]): 45.2 (Log10 CFU/thigh)/hr
- in vivo efficacy against S. aureus (in words) (S. aureus ATCC 25923): bactericidal characteristics and prolonged in vivo activity
- MIC 50% [9]: 4 µg/mL
- MIC 90% [9]: 4 µg/mL
- MIC 50% [10]: 0.12 µg/mL
- MIC 90% [10]: 0.12 µg/mL
- MIC 50% [11]: 0.06 µg/mL
- MIC 90% [11]: 0.25 µg/mL
- fold more potent than teicoplanin and daptomycin [12]: two- to four
- fold more potent than vancomycin [12]: four- to eight
- MIC 50% [12]: 0.03 µg/mL
- MIC 90% [12]: 0.12 µg/mL
- MIC 50% (VanC enterococci (22)): 0.12 µg/mL
- MIC 90% (VanC enterococci (22)): 0.5 µg/mL
- MIC 50% [13]: 0.03 µg/mL
- MIC 90% [13]: 0.06 µg/mL
- MIC 50% [14]: 0.12 µg/mL
- MIC 90% [14]: 0.12 µg/mL

Compound: CCCCCCCCCCNCCNC1(C)CC(OC2C(Oc3c4cc5cc3Oc3ccc(cc3Cl)C(O)C3NC(=O)C(NC(=O)C5NC(=O)C(CC(N)=O)NC(=O)C(NC(=O)C(CC(C)C)NC)C(O)c5ccc(c(Cl)c5)O4)c4ccc(O)c(c4)-c4c(O)cc(O)cc4C(C(=O)NCCOCCOCCN)NC3=O)OC(CO)C(O)C2O)OC(C)C1O (stereo not drawn) [Compound 2]
- MIC (B. anthracis Sterne 105): 0.03 µg/mL (≈ 0.017 µM)
- modal MIC ([1]; MSSA): 0.03 µg/mL
- MIC 50% [1]: 0.03 µg/mL (≈ 0.017 µM)
- MIC 90% [1]: 0.12 µg/mL (≈ 0.0681 µM)
- modal MIC ([2]; MRSA): 0.06 µg/mL
- MIC 50% [2]: 0.06 µg/mL (≈ 0.034 µM)
- MIC 90% [2]: 0.12 µg/mL (≈ 0.0681 µM)
- MIC 50% [3]: 0.12 µg/mL (≈ 0.0681 µM)
- MIC 50% [4]: 1 µg/mL (≈ 0.567 µM)
- MIC 50% [5]: 0.06 µg/mL (≈ 0.034 µM)
- MIC 90% [5]: 0.12 µg/mL (≈ 0.0681 µM)
- fold more potent than linezolid (S. pneumoniae (22); S. pneumoniae): 32 fold
- MIC 50% (S. pneumoniae (22)): 0.015 µg/mL
- MIC 90% (S. pneumoniae (22)): 0.03 µg/mL
- MIC 50% [6]: 0.03 µg/mL (≈ 0.017 µM)
- MIC 90% [6]: 0.06 µg/mL (≈ 0.034 µM)
- MIC 50% [7]: 1 µg/mL (≈ 0.567 µM)
- MIC 90% [7]: 2 µg/mL (≈ 1.13 µM)
- MIC 50% [8]: 0.015 µg/mL (≈ 0.00851 µM)
- MIC 90% [8]: 0.03 µg/mL (≈ 0.017 µM)
- Max Kill (maximum decrease from initial infection level) (S. aureus ATCC 25923; [15]): −0.28 Log10 CFU/thigh
- AUCc-t (AUC difference between control and treated animals) (S. aureus ATCC 25923; [15]): 29 (Log10 CFU/thigh)/hr
- Max Kill (maximum decrease from initial infection level) (S. aureus ATCC 25923; [16]): −1.01 Log10 CFU/thigh
- AUCc-t (AUC difference between control and treated animals) (S. aureus ATCC 25923; [16]): 40.1 (Log10 CFU/thigh)/hr
- Max Kill (maximum decrease from initial infection level) (S. aureus ATCC 25923; [17]): −1.13 Log10 CFU/thigh
- AUCc-t (AUC difference between control and treated animals) (S. aureus ATCC 25923; [17]): 55 (Log10 CFU/thigh)/hr
- organism reduction across doses (S. aureus ATCC 25923; 1, 4 and 16 mg/kg intraperitoneal): organism reduction over the entire dose range
- in vivo efficacy against S. aureus (in words) (S. aureus ATCC 25923): bactericidal characteristics and prolonged in vivo activity
- MIC 50% [9]: 2 µg/mL (≈ 1.13 µM)
- MIC 90% [9]: 4 µg/mL (≈ 2.27 µM)
- MIC 50% [10]: 0.06 µg/mL (≈ 0.034 µM)
- MIC 90% [10]: 0.12 µg/mL (≈ 0.0681 µM)
- MIC 50% [11]: 0.06 µg/mL (≈ 0.034 µM)
- MIC 90% [11]: 0.12 µg/mL (≈ 0.0681 µM)
- fold more potent than teicoplanin and daptomycin [12]: two- to four
- fold more potent than vancomycin [12]: four- to eight
- MIC 50% [12]: 0.03 µg/mL
- MIC 90% [12]: 0.12 µg/mL
- MIC 50% (VanC enterococci (22)): 0.06 µg/mL (≈ 0.034 µM)
- MIC 90% (VanC enterococci (22)): 0.12 µg/mL (≈ 0.0681 µM)
- MIC 50% [13]: 0.015 µg/mL (≈ 0.00851 µM)
- MIC 90% [13]: 0.03 µg/mL (≈ 0.017 µM)
- MIC 50% [14]: 0.06 µg/mL (≈ 0.034 µM)
- MIC 90% [14]: 0.12 µg/mL (≈ 0.0681 µM)
